Measured values taken from the NIST ThermoML archive (doi:10.1016/j.jct.2015.11.009).

Experiments:
[1] = refractive index (Na D-line) (dimensionless); xn = mol fraction of the nth substance listed; settings: 100 kPa, Liquid, Standard Abbe refractometry
[2] = xn = mol fraction of the nth substance listed; settings: 100 kPa, Liquid; for speed of sound: Frequency=3 MHz, Sing-around technique in a fixed-path interferometer; for mass density: Vibrating tube method

O=C1CCCN1 [2-pyrrolidinone] + CCCCn1cc[n+](C)c1.F[B-](F)(F)F
Settings | mass density, [2] [kg/m3] | refractive index, [1] | speed of sound, [2] [m/s]
298.15 K, x2 = 0 | 1107.16 | 1.48591 | 1634.4
298.15 K, x2 = 0.102 | 1128.93 | 1.47414 | 1625.5
298.15 K, x2 = 0.1951 | 1143.99 | 1.46433 | 1618
298.15 K, x2 = 0.3046 | 1155.01 | 1.45472 | 1608.3
298.15 K, x2 = 0.3886 | 1163.44 | 1.4487 | 1601
298.15 K, x2 = 0.5262 | 1173.25 | 1.44033 | 1590.7
298.15 K, x2 = 0.6185 | 1179.38 | 1.43543 | 1584.4
298.15 K, x2 = 0.69 | 1183.57 | 1.43222 | 1579.5
298.15 K, x2 = 0.7844 | 1188.69 | 1.4283 | 1574.3
298.15 K, x2 = 0.8861 | 1193.47 | 1.42468 | 1569.2
303.15 K, x2 = 0 | 1103.07 | 1.48403 | 1618
303.15 K, x2 = 0.102 | 1124.98 | 1.47243 | 1610.2
303.15 K, x2 = 0.1951 | 1139 | 1.46228 | 1604.1
303.15 K, x2 = 0.3046 | 1151.24 | 1.45316 | 1594.5
303.15 K, x2 = 0.3886 | 1159.65 | 1.44722 | 1587.5
303.15 K, x2 = 0.5262 | 1169.51 | 1.43885 | 1578.1
303.15 K, x2 = 0.6185 | 1175.68 | 1.43414 | 1572.5
303.15 K, x2 = 0.69 | 1179.91 | 1.43084 | 1567.2
303.15 K, x2 = 0.7844 | 1185.05 | 1.42696 | 1562.2
303.15 K, x2 = 0.8861 | 1189.85 | 1.42338 | 1557.3
308.15 K, x2 = 0 | 1098.99 | 1.48218 | 1601.6
308.15 K, x2 = 0.102 | 1121.03 | 1.47067 | 1595.5
308.15 K, x2 = 0.1951 | 1135.12 | 1.461 | 1589.2
308.15 K, x2 = 0.3046 | 1147.43 | 1.45161 | 1580.2
308.15 K, x2 = 0.3886 | 1155.87 | 1.44571 | 1573.8
308.15 K, x2 = 0.5262 | 1165.8 | 1.43737 | 1565.4
308.15 K, x2 = 0.6185 | 1172.01 | 1.43271 | 1560.1
308.15 K, x2 = 0.69 | 1176.26 | 1.42943 | 1554.7
308.15 K, x2 = 0.7844 | 1181.42 | 1.4256 | 1550
308.15 K, x2 = 0.8861 | 1186.26 | 1.42205 | 1545.4
313.15 K, x2 = 0 | 1094.9 | 1.48033 | 1585.4
313.15 K, x2 = 0.102 | 1117.09 | 1.46895 | 1580.5
313.15 K, x2 = 0.1951 | 1131.25 | 1.45929 | 1575
313.15 K, x2 = 0.3046 | 1143.62 | 1.44998 | 1566.5
313.15 K, x2 = 0.3886 | 1152.11 | 1.44418 | 1560.7
313.15 K, x2 = 0.5262 | 1162.12 | 1.43589 | 1552.7
313.15 K, x2 = 0.6185 | 1168.35 | 1.43125 | 1547.9
313.15 K, x2 = 0.69 | 1172.63 | 1.42805 | 1542.5
313.15 K, x2 = 0.7844 | 1177.81 | 1.4242 | 1537.9
313.15 K, x2 = 0.8861 | 1182.68 | 1.42069 | 1533.5
318.15 K, x2 = 0 | 1090.82 | 1.47841 | 1570.4
318.15 K, x2 = 0.102 | 1113.15 | 1.46715 | 1566
318.15 K, x2 = 0.1951 | 1127.38 | 1.45813 | 1560.9
318.15 K, x2 = 0.3046 | 1139.83 | 1.44832 | 1553.8
318.15 K, x2 = 0.3886 | 1148.36 | 1.44261 | 1547.8
318.15 K, x2 = 0.5262 | 1158.47 | 1.43436 | 1541.2
318.15 K, x2 = 0.6185 | 1164.72 | 1.42972 | 1536.4
318.15 K, x2 = 0.69 | 1169.02 | 1.42665 | 1530.7
318.15 K, x2 = 0.7844 | 1174.23 | 1.42286 | 1526.2
318.15 K, x2 = 0.8861 | 1179.12 | 1.41928 | 1521.9
323.15 K, x2 = 0 | 1086.75 | 1.47649 | 1553.5
323.15 K, x2 = 0.102 | 1109.21 | 1.46522 | 1550
323.15 K, x2 = 0.1951 | 1123.52 | 1.45533 | 1545.8
323.15 K, x2 = 0.3046 | 1136.08 | 1.44663 | 1539.4
323.15 K, x2 = 0.3886 | 1144.62 | 1.44099 | 1534.3
323.15 K, x2 = 0.5262 | 1154.82 | 1.43282 | 1528
323.15 K, x2 = 0.6185 | 1161.11 | 1.42817 | 1524
323.15 K, x2 = 0.69 | 1165.45 | 1.42522 | 1519.2
323.15 K, x2 = 0.7844 | 1170.66 | 1.42148 | 1514.2
323.15 K, x2 = 0.8861 | 1175.58 | 1.41788 | 1510.2
